The record followed here is patent US20220305012A1, “L[…] TREATING SLEEP ISSUES” (EISAI R&D MANAGEMENT CO., LTD., priority 2019, published 2022).

In data set [1] the test system is Subjects Having Insomnia Disorder. Kind of data set: Example 2: Insomnia Severity Index Total Score (Items 1-7). The note with it: for Insomnia Severity Total Score (Items 1-7), Change from Study Baseline, Mean (SD) / Insomnia Severity Total Score (Items 1-7), Change from Study Baseline, Median / Insomnia Severity Total Score (Items 1-7), Mean (SD) / Insomnia Severity Total Score (Items 1-7), Median: Day 31. The data set is classed as in vivo, human. The text has this:
As used herein, the term “Insomnia Severity Index”, abbreviated as “ISI”, is an index calculated using a 7-item, self-report questionnaire assessing the nature, severity, and impact of insomnia (see Bastien, C. H., et al. “Validation of the Insomnia Severity Index as an outcome measure for insomnia research.” Sleep Med. 2001; 2(4): 297-307). The questionnaire evaluates: (1) severity of sleep onset; (2) sleep maintenance; (3) early morning awakening problems; (4) sleep dissatisfaction; (5) interference caused by sleep difficulties with daytime functioning; (6) noticeability of sleep problems by others; and (7) distress caused by the sleep difficulties. A 5-point scale is used to rate each item (0=no problem to 4=very severe problem) yielding a total score from 0 to 28. Total ISI score (items (1)-(7)) and daytime functioning (items (4)-(7)) are analyzed separately.
On day 1 of the baseline period, subjects were admitted to the clinic and ISI, FSS, and EQ-5D-3L were administered. Blood and urine samples were collected for routine safety assessments, an ECG was performed, and vital signs and weight were assessed. The eC-SSRS was administered. Subjects who completed the baseline period and continued to meet the eligibility criteria were randomized and began the randomization phase.
(§1) On the evening of Day 30, subjects returned to the clinic. A pre-dose blood sample was collected and study drug was again administered within 5 minutes of the subject's mean habitual bedtime. A polysomnogram recording was initiated. The following morning (Day 31), postural stability and cognitive performance were assessed and a blood sample was obtained. The ISI, FSS, EQ-5D-3L and PGI-Insomnia were administered. Blood and urine samples were collected for routine safety assessment. An electrocardiogram was performed, and vital signs and weight were assessed. The eC-SSRS was then administered to the subject. At 1.5 hours after waketime, subjects rated their morning sleepiness level.

Data set [2] has the same test system. Kind of data set: Example 2: postural stability, body sway upon awakening in morning. The data set is classed as in vivo, human.
Excerpt: Subjects were provided with a sleep diary and trained on how to record entries. After subjects completed the sleep diary on 7 consecutive mornings, and provided that the subject was still eligible to participate in the study, they attended a second clinical meeting between 10 and 17 days before the randomization phase. The subject was then fitted with a polysomnogram and trained in how to complete the postural stability assessment and cognitive performance assessment battery. Subjects then underwent an 8-hour polysomnogram recording. Within 5 minutes of waking, the postural stability assessment and cognitive assessment battery were conducted on the subject.
Within 5 minutes of the subject's mean habitual bedtime, study drug was administered and an overnight polysomnogram recording was initiated. At completion of the recording the following morning (Day 2), postural stability and cognitive performance were assessed. On the Day 2 evening, subjects returned to the clinic and a blood sample was collected before administering study drug, and then study drug was administered within 5 minutes of the subject's mean habitual bedtime. Again, a polysomnogram recording was initiated. The next morning (Day 3), postural stability and cognitive performance were assessed. A blood sample was also collected.
On Day 29, subjects returned to the clinic. Study drug was administered within 5 minutes of the subject's mean habitual bedtime and a polysomnogram recording was conducted. On the following morning (Day 30), postural stability and cognitive performance were assessed. After 1.5 hours of waketime, subjects rated their morning sleepiness level.
as §1
An exemplary additional secondary endpoint is the change from baseline on the postural stability test of mean units of body sway on Days 2 and 3 after administration of 5 mg or 10 mg of lemborexant compared to zolpidem.

Setting [3] is: Days 30/31, Zolpidem ER 6.25 mg.

The structures appear in SMILES notation.

On to `Cc1ncc(OC[C@@]2(c3cccc(F)c3)C[C@H]2C(=O)Nc2ccc(F)cn2)c(C)n1` [Lemborexant, (1R,2S)-2-(((2,4-dimethylpyrimidin-5-yl)oxy)methyl)-2-(3-fluorophenyl)-N-(5-fluoropyridin-2-yl)cyclopropanecarboxamide], for which, in data set [1] (Lemborexant 5 mg), the “Insomnia Severity Total Score (Items 1-7), Change from Study Baseline, Mean (SD)” value is given as −7.75 (5.474); the “Insomnia Severity Total Score (Items 1-7), Change from Study Baseline, Median” value was −7.00; the “Insomnia Severity Total Score (Items 1-7), Mean (SD)” value is 11.24 (5.387); the “Insomnia Severity Total Score (Items 1-7), Median” value turned out to be 11.00. In addition, in data set [1] (Lemborexant 10 mg), the “Insomnia Severity Total Score (Items 1-7), Change from Study Baseline, Mean (SD)” value is recorded as −7.92 (5.894); the “Insomnia Severity Total Score (Items 1-7), Change from Study Baseline, Median” value is recorded as −7.00; the “Insomnia Severity Total Score (Items 1-7), Mean (SD)” value is recorded as 11.11 (5.639); the “Insomnia Severity Total Score (Items 1-7), Median” value is reported as 11.00. In addition, the “mean insomnia severity index total score” value in data set [1] (lemborexant treatment groups, relative to baseline and the placebo treatment group (Table 22)) is “reduced”. In data set [2] (Days 2/3, Lemborexant 5 mg), the “Body Sway Upon Awakening in Morning, Change from Study Baseline, Mean (SD)” value is recorded as −0.82 ⅓ degree angle of arc; the “Body Sway Upon Awakening in Morning, Change from Study Baseline, Median” value is −0.50 ⅓ degree angle of arc; the “Body Sway Upon Awakening in Morning, Mean (SD)” value is 25.73 ⅓ degree angle of arc; the “Body Sway Upon Awakening in Morning, Median” value is 21.00 ⅓ degree angle of arc. For the same compound, in data set [2] (Days 2/3, Lemborexant 10 mg), the “Body Sway Upon Awakening in Morning, Change from Study Baseline, Mean (SD)” value was 0.56 ⅓ degree angle of arc; the “Body Sway Upon Awakening in Morning, Change from Study Baseline, Median” value is 0.50 ⅓ degree angle of arc; the “Body Sway Upon Awakening in Morning, Mean (SD)” value is reported as 24.36 ⅓ degree angle of arc; the “Body Sway Upon Awakening in Morning, Median” value was 20.00 ⅓ degree angle of arc. In data set [2] (Days 30/31, Lemborexant 5 mg), the “Body Sway Upon Awakening in Morning, Change from Baseline, Mean (SD)” value is on record as −0.85 ⅓ degree angle of arc; the “Body Sway Upon Awakening in Morning, Change from Baseline, Median” value is on record as −0.50 ⅓ degree angle of arc; the “Body Sway Upon Awakening in Morning, Mean (SD)” value is listed as 25.10 ⅓ degree angle of arc; the “Body Sway Upon Awakening in Morning, Median” value is reported as 20.50 ⅓ degree angle of arc. In data set [2] (Days 30/31, Lemborexant 10 mg), the “Body Sway Upon Awakening in Morning, Change from Baseline, Mean (SD)” value is given as 0.48 ⅓ degree angle of arc; the “Body Sway Upon Awakening in Morning, Change from Baseline, Median” value was 0.50 ⅓ degree angle of arc; the “Body Sway Upon Awakening in Morning, Mean (SD)” value was 22.76 ⅓ degree angle of arc; the “Body Sway Upon Awakening in Morning, Median” value is 18.00 ⅓ degree angle of arc. In addition, the “effects on postural stability compared to placebo” value in data set [2] (Table 24) is “no significant effects on postural stability compared to placebo”. In data set [2] (all lemborexant treatment groups, relative to baseline, placebo and zolpidem treatment groups (Table 24)), the body sway entry is reported as “reduced”.

As for `Cc1ccc(-c2nc3ccc(C)cn3c2CC(=O)N(C)C)cc1` [Zolpidem ER, zolpidem, reference compound], in data set [1] (Zolpidem ER 6.25 mg), the “Insomnia Severity Total Score (Items 1-7), Change from Study Baseline, Mean (SD)” value is recorded as −8.26 (6.013); the “Insomnia Severity Total Score (Items 1-7), Change from Study Baseline, Median” value was −8.00; the “Insomnia Severity Total Score (Items 1-7), Mean (SD)” value is reported as 10.98 (5.452); the “Insomnia Severity Total Score (Items 1-7), Median” value is 11.00. In addition, in data set [2] (Days 2/3, Zolpidem ER 6.25 mg), the “Body Sway Upon Awakening in Morning, Change from Study Baseline, Mean (SD)” value is reported as 4.07 ⅓ degree angle of arc; the “Body Sway Upon Awakening in Morning, Change from Study Baseline, Median” value was 2.50 ⅓ degree angle of arc; the “Body Sway Upon Awakening in Morning, Mean (SD)” value is 29.86 ⅓ degree angle of arc; the “Body Sway Upon Awakening in Morning, Median” value is recorded as 25.00 ⅓ degree angle of arc. Moreover, in data set [2] (setting [3]), the “Body Sway Upon Awakening in Morning, Change from Baseline, Mean (SD)” value is listed as 2.12 ⅓ degree angle of arc; the “Body Sway Upon Awakening in Morning, Change from Baseline, Median” value is 2.50 ⅓ degree angle of arc; the “Body Sway Upon Awakening in Morning, Mean (SD)” value is reported as 27.65 ⅓ degree angle of arc; the “Body Sway Upon Awakening in Morning, Median” value was 22.50 ⅓ degree angle of arc.
